Toxic doses and inconclusive results are not listed. Cut-off read from the data, not from the text of the source: active = T/C of 150% or more; inactive = T/C below 125%.
Test system: L1210 leukemia ip in BDF1 mice, survival T/C
Test: NCI In Vivo Anticancer Drug Screen. Data for tumor model L1210 Leukemia (intraperitoneal) in B6D2F1 (BDF1) mice
Settings: endpoint: mean survival time, higher = longer survival
How it was run: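 Each compound was tested against a transplantable tumor grown in mice. The endpoint was survival, with treated animals benchmarked against vehicle controls as a simple ratio.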

Measured: T/C

CCOC(=O)C(CO)(CC(CO)(C(C)=O)C(=O)OCC)C(C)=O (stereo unspecified)
inactive: dose: 222.0 mg/kg/injection, schedule: Q01DX Z (ip), vehicle: methylcellulose (MC) 98 % of control | dose: 333.0 mg/kg/injection, schedule: Q01DX Z (ip), vehicle: methylcellulose (MC) 110 % of control | dose: 500.0 mg/kg/injection, schedule: Q01DX Z (ip), vehicle: methylcellulose (MC) 108 % of control

COC(=O)CC(C)C(C)(C)[N+](=O)[O-] (stereo unspecified)
inactive: dose: 50.0 mg/kg/injection, schedule: Q01DX009 (ip), vehicle: saline with Tween-80 92 % of control | dose: 100.0 mg/kg/injection, schedule: Q01DX009 (ip), vehicle: saline with Tween-80 92 % of control | dose: 200.0 mg/kg/injection, schedule: Q01DX009 (ip), vehicle: saline with Tween-80 92 % of control
